Measured values as given in the NIST ThermoML archive (doi:10.1021/je030207i).

Legend:
[1] = excess molar enthalpy (molar enthalpy of mixing); xn = mol fraction of the nth substance listed; conditions: 101.3 kPa, Liquid, Flow calorimetry
[2] = Liquid; for mass density: 298.15 K, 101.3 kPa; for Normal boiling temperature: Ebulliometric method (Recirculating still)

OCCO [1,2-ethanediol] + CCO
excess molar enthalpy [kJ/mol], [1]
Conditions | 298.15 K | 308.15 K | 323.15 K
x1 = 0.0526 | 0.111 | 0.119 | 0.129
x1 = 0.1045 | 0.199 | 0.212 | 0.229
x1 = 0.1561 | 0.266 | 0.284 | 0.307
x1 = 0.2075 | 0.317 | 0.338 | 0.366
x1 = 0.2587 | 0.351 | 0.378 | 0.409
x1 = 0.3096 | 0.379 | 0.406 | 0.439
x1 = 0.3604 | 0.395 | 0.423 | 0.457
x1 = 0.4109 | 0.403 | 0.43 | 0.464
x1 = 0.4611 | 0.403 | 0.43 | 0.464
x1 = 0.5112 | 0.396 | 0.421 | 0.452
x1 = 0.561 | 0.381 | 0.406 | 0.438
x1 = 0.6106 | 0.359 | 0.383 | 0.413
x1 = 0.66 | 0.332 | 0.355 | 0.381
x1 = 0.7092 | 0.3 | 0.32 | 0.344
x1 = 0.7581 | 0.264 | 0.28 | 0.303
x1 = 0.8069 | 0.221 | 0.235 | 0.252
x1 = 0.8554 | 0.172 | 0.181 | 0.197
x1 = 0.9037 | 0.116 | 0.128 | 0.138
x1 = 0.9518 | 0.0615 | 0.0651 | 0.0709

OCCO [1,2-ethanediol] + CO
[1]
Conditions | excess molar enthalpy [kJ/mol]
298.15 K, x1 = 0.037 | 0.0236
298.15 K, x1 = 0.0748 | 0.0442
298.15 K, x1 = 0.1137 | 0.0613
298.15 K, x1 = 0.1538 | 0.0771
298.15 K, x1 = 0.195 | 0.0903
298.15 K, x1 = 0.2374 | 0.1
298.15 K, x1 = 0.2811 | 0.11
298.15 K, x1 = 0.3262 | 0.115
298.15 K, x1 = 0.3726 | 0.12
298.15 K, x1 = 0.4206 | 0.121
298.15 K, x1 = 0.4701 | 0.121
298.15 K, x1 = 0.5212 | 0.118
298.15 K, x1 = 0.574 | 0.113
298.15 K, x1 = 0.6286 | 0.105
298.15 K, x1 = 0.6851 | 0.0944
298.15 K, x1 = 0.7436 | 0.0824
298.15 K, x1 = 0.8042 | 0.0655
298.15 K, x1 = 0.867 | 0.0477
298.15 K, x1 = 0.9321 | 0.0247
308.15 K, x1 = 0.0372 | 0.0249
308.15 K, x1 = 0.0752 | 0.0473
308.15 K, x1 = 0.1143 | 0.0662
308.15 K, x1 = 0.1545 | 0.0821
308.15 K, x1 = 0.1958 | 0.0981
308.15 K, x1 = 0.2384 | 0.108
308.15 K, x1 = 0.2822 | 0.118
308.15 K, x1 = 0.3274 | 0.125
308.15 K, x1 = 0.3739 | 0.129
308.15 K, x1 = 0.4219 | 0.132
308.15 K, x1 = 0.4715 | 0.13
308.15 K, x1 = 0.5226 | 0.126
308.15 K, x1 = 0.5754 | 0.119
308.15 K, x1 = 0.6299 | 0.113
308.15 K, x1 = 0.6863 | 0.102
308.15 K, x1 = 0.7447 | 0.0877
308.15 K, x1 = 0.8051 | 0.0706
308.15 K, x1 = 0.8676 | 0.0504
308.15 K, x1 = 0.9325 | 0.0264
323.15 K, x1 = 0.0371 | 0.0287
323.15 K, x1 = 0.075 | 0.0532
323.15 K, x1 = 0.114 | 0.0748
323.15 K, x1 = 0.154 | 0.0916
323.15 K, x1 = 0.1953 | 0.108
323.15 K, x1 = 0.2378 | 0.122
323.15 K, x1 = 0.2815 | 0.132
323.15 K, x1 = 0.3266 | 0.139
323.15 K, x1 = 0.3732 | 0.144
323.15 K, x1 = 0.4211 | 0.146
323.15 K, x1 = 0.4706 | 0.144
323.15 K, x1 = 0.5218 | 0.142
323.15 K, x1 = 0.5746 | 0.135
323.15 K, x1 = 0.6292 | 0.125
323.15 K, x1 = 0.6856 | 0.113
323.15 K, x1 = 0.744 | 0.0966
323.15 K, x1 = 0.8046 | 0.0775
323.15 K, x1 = 0.8673 | 0.0546
323.15 K, x1 = 0.9323 | 0.0279

CCCCO [butan-1-ol]
[2]
Conditions | Normal boiling temperature [°C] | mass density [kg/m3]
– | 117.71 | 805.9

CCC(C)O (stereo unspecified) [butan-2-ol] + OCCO
excess molar enthalpy [kJ/mol], [1]
Conditions | 298.15 K | 308.15 K | 323.15 K
x2 = 0.081 | 0.274 | 0.244 | 0.176
x2 = 0.1557 | 0.458 | 0.421 | 0.325
x2 = 0.226 | 0.571 | 0.537 | 0.433
x2 = 0.2923 | 0.643 | 0.607 | 0.502
x2 = 0.3549 | 0.686 | 0.649 | 0.547
x2 = 0.4142 | 0.701 | 0.672 | 0.572
x2 = 0.4703 | 0.701 | 0.674 | 0.583
x2 = 0.5235 | 0.69 | 0.665 | 0.58
x2 = 0.5741 | 0.669 | 0.646 | 0.571
x2 = 0.6222 | 0.635 | 0.621 | 0.553
x2 = 0.6681 | 0.602 | 0.584 | 0.525
x2 = 0.7117 | 0.556 | 0.545 | 0.491
x2 = 0.7535 | 0.511 | 0.498 | 0.454
x2 = 0.7933 | 0.449 | 0.442 | 0.41
x2 = 0.8314 | 0.389 | 0.383 | 0.356
x2 = 0.868 | 0.325 | 0.322 | 0.297
x2 = 0.9029 | 0.252 | 0.252 | 0.23
x2 = 0.9365 | 0.176 | 0.173 | 0.156
x2 = 0.9687 | 0.0933 | 0.0924 | 0.0805

CCO [ethanol]
[2]
Conditions | Normal boiling temperature [°C] | mass density [kg/m3]
– | 78.26 | 785.2

CO [methanol]
[2]
Conditions | Normal boiling temperature [°C] | mass density [kg/m3]
– | 64.47 | 786.4

CCCO [propan-1-ol]
[2]
Conditions | Normal boiling temperature [°C] | mass density [kg/m3]
– | 97.16 | 799.8

CC(C)O [propan-2-ol]
[2]
Conditions | Normal boiling temperature [°C] | mass density [kg/m3]
– | 82.20 | 781.1
